This note sets out measurements from ChEMBL document CHEMBL4680060, “Polybasic peptide-levofloxacin conjugates potentiate fluoroquinolones and other classes of antibiotics against multidrug-resistant Gram-negative bacteria” (Medchemcomm, 2019).

In brackets after ≈: the same amount, converted by molar mass. Where only a bound is given, the exact number is not on record here.

Experiment [1] concerns Pseudomonas aeruginosa. Kind of experiment: Potentiation of moxifloxacin-induced antibacterial activity against wild type Pseudomonas aeruginosa PAO1 assessed as moxifloxacin MIC measured after 18 hrs by CLSI protocol based microbroth dilution method (reference value: 1 ug/ml). It counts as functional. In general terms: Broth dilution looks for growth in wells or tubes with falling amounts of substance.

For experiment [2], the system named is Staphylococcus epidermidis. Description: Antibacterial activity against methicillin-susceptible Staphylococcus epidermidis clinical isolate CANWARD-2008 81388 assessed as inhibition of visible growth incubated for 18 hrs by CLSI protocol based microbroth dilution method. Format: functional.
Experiment [3] relates to Staphylococcus aureus. Kind of experiment: Antibacterial activity against Staphylococcus aureus ATCC 29213 assessed as inhibition of visible growth incubated for 18 hrs by CLSI protocol based microbroth dilution method. It counts as functional.
The next experiment has as its system Escherichia coli. Kind of experiment: Antibacterial activity against Escherichia coli ATCC 25922 assessed as inhibition of visible growth incubated for 18 hrs by CLSI protocol based microbroth dilution method. It counts as functional.
Experiment [4] has as its system Staphylococcus aureus. Description: Antibacterial activity against methicillin-resistant Staphylococcus aureus ATCC 33592 assessed as inhibition of visible growth incubated for 18 hrs by CLSI protocol based microbroth dilution method. Format: functional.
In experiment [5] the test system is Pseudomonas aeruginosa. Description: Potentiation of ciprofloxacin-induced antibacterial activity against wild type Pseudomonas aeruginosa PAO1 assessed as ciprofloxacin MIC measured after 18 hrs by CLSI protocol based microbroth dilution method (reference value: 0.125 ug/ml). Format: functional.
The test system of a further experiment is Acinetobacter baumannii. Description: Antibacterial activity against Acinetobacter baumannii clinical isolate CAN-ICU 63169 assessed as inhibition of visible growth incubated for 18 hrs by CLSI protocol based microbroth dilution method. Format: functional.
A further experiment concerns Streptococcus pneumoniae. Kind of experiment: Antibacterial activity against Streptococcus pneumoniae ATCC 49619 assessed as inhibition of visible growth incubated for 18 hrs by CLSI protocol based microbroth dilution method. It counts as functional.
Another experiment deals with Enterobacter cloacae. Description: Antibacterial activity against Enterobacter cloacae 117029 assessed as inhibition of visible growth incubated for 18 hrs by CLSI protocol based microbroth dilution method. It counts as functional.
The subject of experiment [6] is Pseudomonas aeruginosa. Description: Antibacterial activity against Pseudomonas aeruginosa ATCC 27853 assessed as inhibition of visible growth incubated for 18 hrs by CLSI protocol based microbroth dilution method. It counts as functional.
A further experiment concerns Klebsiella pneumoniae. Kind of experiment: Antibacterial activity against Klebsiella pneumoniae 116381 assessed as inhibition of visible growth incubated for 18 hrs by CLSI protocol based microbroth dilution method. It counts as functional.
Experiment [7] deals with Pseudomonas aeruginosa. Description: Potentiation of levofloxacin-induced antibacterial activity against wild type Pseudomonas aeruginosa PAO1 assessed as levofloxacin MIC measured after 18 hrs by CLSI protocol based microbroth dilution method (reference value: 0.5 ug/ml). Format: functional.
Experiment [8] concerns Stenotrophomonas maltophilia. Kind of experiment: Antibacterial activity against Stenotrophomonas maltophilia clinical isolate CAN-ICU 62584 assessed as inhibition of visible growth incubated for 18 hrs by CLSI protocol based microbroth dilution method. Format: functional.
For experiment [9], the system named is Staphylococcus aureus. Description: Antibacterial activity against methicillin-resistant Staphylococcus aureus clinical isolate CAN-ICU 61589 assessed as inhibition of visible growth incubated for 18 hrs by CLSI protocol based microbroth dilution method. Format: functional.
The next experiment relates to Enterococcus faecalis. Description: Antibacterial activity against Enterococcus faecalis ATCC 29212 assessed as inhibition of visible growth incubated for 18 hrs by CLSI protocol based microbroth dilution method. Format: functional.
Experiment [10] has as its system Pseudomonas aeruginosa. Description: microbe, parasite or virus in culture. As to conditions: PAO1, 18 h.
In experiment [11] the test system is Pseudomonas aeruginosa. Description: microbe, parasite or virus in culture. The note with it: PAO1, 18 h. The source holds these as a separate data set.
The subject of experiment [12] is Pseudomonas aeruginosa. Kind of experiment: microbe, parasite or virus in culture. The note with it: PAO1, 18 h. The source holds these as a separate data set.

For `C[C@H]1COc2c(N3CCN(C)CC3)c(F)cc3c(=O)c(C(=O)N[C@H](CN)CCC(=O)O)cn1c23`, the MIC was 1 µg/mL with Pseudomonas aeruginosa [1]; more than 128 µg/mL in experiment [2]; more than 128 µg/mL with Staphylococcus aureus [3]; more than 128 µg/mL in the experiment on Escherichia coli; more than 128 µg/mL with Staphylococcus aureus [4]; 0.125 µg/mL in the experiment on Pseudomonas aeruginosa [5]. The MIC is more than 128 µg/mL with Acinetobacter baumannii; more than 128 µg/mL in the experiment with Streptococcus pneumoniae; more than 128 µg/mL in the experiment on Enterobacter cloacae; more than 128 µg/mL with Pseudomonas aeruginosa [6]; more than 128 µg/mL with Klebsiella pneumoniae; 0.5 µg/mL with Pseudomonas aeruginosa [7]. The MIC (in experiment [8]; with Staphylococcus aureus [9]; with Enterococcus faecalis) was more than 128 µg/mL in each case.
Regarding `C[C@H]1COc2c(N3CCN(C)CC3)c(F)cc3c(=O)c(C(=O)N[C@@H](CCC(=O)O)C(=O)N[C@H](CN)CCC(=O)O)cn1c23`, the MIC with Pseudomonas aeruginosa [1] is 1 µg/mL; in experiment [2], more than 128 µg/mL; in the experiment with Staphylococcus aureus [3] it was more than 128 µg/mL; with Escherichia coli, 128 µg/mL (≈ 212 µM); with Staphylococcus aureus [4], more than 128 µg/mL; in the experiment with Pseudomonas aeruginosa [5], 0.125 µg/mL. Also, the MIC with Acinetobacter baumannii was more than 128 µg/mL; in the experiment with Streptococcus pneumoniae, more than 128 µg/mL; with Enterobacter cloacae, more than 128 µg/mL; in the experiment on Pseudomonas aeruginosa [6] it was more than 128 µg/mL; with Klebsiella pneumoniae it was more than 128 µg/mL; in the experiment with Pseudomonas aeruginosa [7] it was 0.5 µg/mL. Also, the MIC in experiment [8] is 16 µg/mL (≈ 26.5 µM); with Staphylococcus aureus [9], more than 128 µg/mL; in the experiment with Enterococcus faecalis, more than 128 µg/mL.
As for `C[C@H]1COc2c(N3CCN(C)CC3)c(F)cc3c(=O)c(C(=O)N[C@@H](CCN)C(=O)N[C@@H](CCN)C(N)=O)cn1c23`, the MIC in the experiment with Pseudomonas aeruginosa [1] was 1 µg/mL; in experiment [2] it was more than 128 µg/mL; in the experiment with Staphylococcus aureus [3], more than 128 µg/mL; in the experiment with Escherichia coli, 128 µg/mL (≈ 228 µM); in the experiment on Staphylococcus aureus [4], more than 128 µg/mL; in the experiment with Pseudomonas aeruginosa [5], 0.125 µg/mL. The MIC in the experiment with Acinetobacter baumannii is more than 128 µg/mL; in the experiment on Streptococcus pneumoniae, more than 128 µg/mL; in the experiment on Enterobacter cloacae, more than 128 µg/mL; with Pseudomonas aeruginosa [6], more than 128 µg/mL; in the experiment with Klebsiella pneumoniae, more than 128 µg/mL; in the experiment on Pseudomonas aeruginosa [7] it was 0.25 µg/mL. The MIC (in experiment [8]; with Staphylococcus aureus [9]; in the experiment on Enterococcus faecalis) was more than 128 µg/mL each time.
Consider `C[C@H]1COc2c(N3CCN(C)CC3)c(F)cc3c(=O)c(C(=O)NCCCCCCCCCCCC(=O)N[C@@H](CCN)C(N)=O)cn1c23`, for which the MIC with Pseudomonas aeruginosa [1] is 1 µg/mL; in [2] it was 64 µg/mL (≈ 97.3 µM); in the experiment with Staphylococcus aureus [3], 128 µg/mL (≈ 195 µM); with Escherichia coli it was more than 128 µg/mL; in the experiment with Staphylococcus aureus [4] it was more than 128 µg/mL; in the experiment on Pseudomonas aeruginosa [5] it was 0.063 µg/mL. Also, the MIC in the experiment with Acinetobacter baumannii is more than 128 µg/mL; in the experiment with Streptococcus pneumoniae it was more than 128 µg/mL; in the experiment with Enterobacter cloacae, 128 µg/mL (≈ 195 µM); in the experiment with Pseudomonas aeruginosa [6] it was more than 128 µg/mL; in the experiment on Klebsiella pneumoniae it was more than 128 µg/mL; in the experiment on Pseudomonas aeruginosa [7], 0.25 µg/mL. The values for the MIC (in [8]; in the experiment on Staphylococcus aureus [9]; in the experiment with Enterococcus faecalis) were more than 128 µg/mL, 128 µg/mL (≈ 195 µM) and more than 128 µg/mL, respectively.
For the compound `O=C(O)c1cn(C2CC2)c2cc(N3CCNCC3)c(F)cc2c1=O` [CIPROFLOXACIN], the MIC against Pseudomonas aeruginosa [10] was 16 µg/mL (≈ 48.3 µM); in the experiment on Pseudomonas aeruginosa [11], 32 µg/mL (≈ 96.6 µM).
For `COc1c(N2C[C@@H]3CCCN[C@@H]3C2)c(F)cc2c(=O)c(C(=O)O)cn(C3CC3)c12` [MOXIFLOXACIN], the values for the MIC against Pseudomonas aeruginosa [10], against Pseudomonas aeruginosa [11] and in the experiment with Pseudomonas aeruginosa [12] were 8 µg/mL (≈ 19.9 µM), 8 µg/mL (≈ 19.9 µM) and 16 µg/mL (≈ 39.9 µM), respectively.
For the compound `C[C@H]1COc2c(N3CCN(C)CC3)c(F)cc3c(=O)c(C(=O)N[C@@H](CCN)C(N)=O)cn1c23`, the MIC in the experiment with Pseudomonas aeruginosa [1] was 1 µg/mL; in experiment [2], more than 128 µg/mL; in the experiment on Staphylococcus aureus [3], more than 128 µg/mL; in the experiment with Escherichia coli, 128 µg/mL (≈ 278 µM); in the experiment with Staphylococcus aureus [4], more than 128 µg/mL; with Pseudomonas aeruginosa [5], 0.125 µg/mL. For the same compound, the MIC with Acinetobacter baumannii is more than 128 µg/mL; in the experiment on Streptococcus pneumoniae, more than 128 µg/mL; with Enterobacter cloacae it was more than 128 µg/mL; with Pseudomonas aeruginosa [6], more than 128 µg/mL; in the experiment with Klebsiella pneumoniae, more than 128 µg/mL; in the experiment with Pseudomonas aeruginosa [7] it was 0.5 µg/mL. Also, the MIC (in experiment [8]; in the experiment on Staphylococcus aureus [9]; in the experiment with Enterococcus faecalis) was more than 128 µg/mL each time.
`C[C@H]1COc2c(N3CCN(C)CC3)c(F)cc3c(=O)c(C(=O)O)cn1c23.C[C@H]1COc2c(N3CCN(C)CC3)c(F)cc3c(=O)c(C(=O)O)cn1c23.O` [LEVOFLOXACIN]: the MIC was not above 0.25 µg/mL in experiment [2]; 16 µg/mL in the experiment with Pseudomonas aeruginosa [10]; not above 0.25 µg/mL in the experiment on Staphylococcus aureus [3]; not above 0.25 µg/mL in the experiment on Escherichia coli; not above 0.25 µg/mL in the experiment on Staphylococcus aureus [4]; 1 µg/mL with Acinetobacter baumannii. Besides, the MIC in the experiment with Enterobacter cloacae was 0.125 µg/mL; in the experiment on Klebsiella pneumoniae, 128 µg/mL; against Pseudomonas aeruginosa [12], 16 µg/mL; in experiment [8], 4 µg/mL; with Staphylococcus aureus [9], more than 128 µg/mL; in the experiment on Enterococcus faecalis it was 2 µg/mL.
